Assay results as given in patent US20110152236A1 (SANOFI-AVENTIS, priority 2008, published 2011).
Where two headings read alike, the source gives them in different places.

Tests used:
human CB1 receptor = target: T1, human CB1 receptor (Homo sapiens, UniProt P21554); assay: intracellular cyclic AMP test in U373MG cells (HTRF cAMP Dynamic Kit); assay type: cell-based
T1 construct: U373MG cells naturally expressing the human CB1 receptor; endogenous in cells; host or cells: U373MG cells
Method: The compounds according to the invention were the subject of pharmacological tests for determining the activity with respect to human cannabinoid CB1-type receptors. The efficacy of the compounds of formula (I) was determined in a functional test which measures cannabinoid CB1 receptor activity (intracellular cyclic AMP test). The test for detecting intracellular cyclic AMP in U373MG cells naturally expressing the human CB1 receptor was carried out as described in the following reference: Bouaboula et al., 1995, J. Biol. Chem. 270:13973-13980. The HTRF cAMP Dynamic Kit from CisBio was used to quantify the intracellular cyclic AMP. In this test, the IC50 values are between 0.001 μM and 2 μM.

cannabinoid CB1 receptor = target: T2, cannabinoid CB1 receptor (Mus musculus, UniProt P47746); assay: model of inhibition of gastrointestinal transit induced by racemic CP55,940 in mice; assay type: in vivo; details: 1 mg/kg per os; 3 hours after administration of the product; CP55,940 0.15 mg/kg ip; male CD1 mice
T2 construct: from tissue; host or cells: whole animal (mice; male CD1 mice in the gastrointestinal transit model)
Method: The antagonistic activity of the compounds was also shown by means of the model of inhibition of gastrointestinal transit induced by racemic CP55,940 (1RS,3RS,4RS-3-[hydroxy-2-(1,1-dimethylheptyl)phenyl]-4-(3-hydroxypropyl)cyclohexan-1-ol) in mice, according to the method described by Rinaldi-Carmona et al., J. Pharmacol, Exp. Ther. 2004, 310, 905-914. Briefly, male CD1 mice receive the test product per os 30 minutes or 2 hours before administration of the racemic CP55,940 agonist (1RS,3RS,4RS-3-[hydroxy-2-(1,1-dimethylheptyl)phenyl]-4-(3-hydroxypropyl)cyclohexan-1-ol) (0.15 mg/kg ip in 10% Cremophor). After a further 30 minutes, the animals receive a charcoal bolus po. Thirty minutes later, the animals are euthanized (CO2/O2) and the intestine is dissected. The progression of the charcoal bolus in the intestine is expressed as percentage of the total length of the intestine.

[1] = U373MG cells naturally expressing the human CB1 receptor, intracellular cyclic AMP, read-out: IC50

T2 sequence (P47746 whole entry): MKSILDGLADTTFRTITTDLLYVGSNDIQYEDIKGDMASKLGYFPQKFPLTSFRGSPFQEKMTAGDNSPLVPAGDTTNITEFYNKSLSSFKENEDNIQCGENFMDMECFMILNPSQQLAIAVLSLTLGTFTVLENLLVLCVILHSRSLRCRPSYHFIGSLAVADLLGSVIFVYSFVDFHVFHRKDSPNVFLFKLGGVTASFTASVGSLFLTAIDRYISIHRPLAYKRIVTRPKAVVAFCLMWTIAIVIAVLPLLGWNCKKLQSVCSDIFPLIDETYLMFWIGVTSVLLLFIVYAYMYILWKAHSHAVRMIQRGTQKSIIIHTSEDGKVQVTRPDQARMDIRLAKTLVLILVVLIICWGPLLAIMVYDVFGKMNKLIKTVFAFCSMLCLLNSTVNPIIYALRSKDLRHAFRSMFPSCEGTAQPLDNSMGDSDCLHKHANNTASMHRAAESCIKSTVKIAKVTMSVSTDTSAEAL
T1 sequence (P21554 whole entry): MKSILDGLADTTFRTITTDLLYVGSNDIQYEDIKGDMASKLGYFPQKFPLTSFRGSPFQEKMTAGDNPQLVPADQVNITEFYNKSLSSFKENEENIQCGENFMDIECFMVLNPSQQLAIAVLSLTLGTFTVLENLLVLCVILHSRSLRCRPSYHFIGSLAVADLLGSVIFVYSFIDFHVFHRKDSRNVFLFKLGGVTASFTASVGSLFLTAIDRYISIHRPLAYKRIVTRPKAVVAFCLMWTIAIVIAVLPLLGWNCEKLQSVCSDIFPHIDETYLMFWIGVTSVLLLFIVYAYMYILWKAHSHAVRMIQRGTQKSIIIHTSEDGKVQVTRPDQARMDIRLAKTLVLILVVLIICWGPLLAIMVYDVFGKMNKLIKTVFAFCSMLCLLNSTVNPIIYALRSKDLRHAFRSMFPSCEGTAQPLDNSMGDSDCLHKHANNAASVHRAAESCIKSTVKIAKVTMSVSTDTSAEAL

Structure (SMILES)	melting point	other results
CS(=O)(=O)N(c1cccc(C(=O)Nc2nc(N)n[nH]2)c1)C1CN(C(c2ccc(Cl)cc2)c2ccc(Cl)cc2)C1 [Compound 31, N-(3-amino-1H-1,2,4-triazol-5-yl)-3-[{1-[bis(4-chlorophenyl)methyl]azetidin-3-yl}(methylsulphonyl)amino]benzamide]	222 °C	–
Cc1cccc(NC(=O)c2cc(F)cc(N(C3CN(C(c4ccc(Cl)cc4)c4ccc(Cl)cc4)C3)S(C)(=O)=O)c2)n1 [Compound 28, 3-[{1-[bis(4-chlorophenyl)methyl]azetidin-3-yl}(methylsulphonyl)amino]-5-fluoro-N-(6-methylpyridin-2-yl)benzamide]	176 to 178 °C	–
CS(=O)(=O)N(c1cccc(C(=O)NCc2nc[nH]n2)c1)C1CN(C(c2ccc(Cl)cc2)c2ccc(Cl)cc2)C1 [Compound 13, 3-[{1-[Bis(4-chlorophenyl)methyl]azetidin-3-yl}(methylsulphonyl)amino]-N-(1H-1,2,4-triazol-3-ylmethyl)benzamide]	210 °C	–
CC(NC(=O)c1cc(F)cc(N(C2CN(C(c3ccc(Cl)cc3)c3ccc(Cl)cc3)C2)S(C)(=O)=O)c1)c1ccccn1 (stereo not drawn) [Compound 39]	–	IC50 (human CB1 receptor): 33 nM; percentages of inhibition (cannabinoid CB1 receptor): 66%
CS(=O)(=O)N(c1cccc(C(=O)NCc2nn[nH]n2)c1)C1CN(C(c2ccc(Cl)cc2)c2ccc(Cl)cc2)C1 [Compound 33, 3-[{1-[bis(4-chlorophenyl)methyl]azetidin-3-yl}(methylsulphonyl)amino]-N-(2H-tetrazol-5-ylmethyl)benzamide]	124 °C	–
CS(=O)(=O)N(c1cccc(C(=O)Nc2nnc(C3CC3)s2)c1)C1CN(C(c2ccc(Cl)cc2)c2ccc(Cl)cc2)C1 [Compound 6, 3-[{1-[bis(4-chlorophenyl)methyl]azetidin-3-yl}(methylsulphonyl)amino]-N-(5-cyclopropyl-1,3,4-thiadiazol-2-yl)benzamide]	226 °C	–
CS(=O)(=O)N(c1cccc(C(=O)Nc2cc[nH]n2)c1)C1CN(C(c2ccc(Cl)cc2)c2ccc(Cl)cc2)C1 [Compound 9, 3-[{1-[bis(4-chlorophenyl)methyl]azetidin-3-yl}(methylsulphonyl)amino]-N-(1H-pyrazol-3-yl)-benzamide]	150 °C	–
CS(=O)(=O)N(c1cccc(C(=O)Nc2ncccn2)c1)C1CN(C(c2ccc(Cl)cc2)c2ccc(Cl)cc2)C1 [Compound 8, 3-[{1-[bis(4-chlorophenyl)methyl]azetidin-3-yl}(methylsulphonyl)amino]-N-(pyrimidin-2-yl)-benzamide]	137 °C	–
CS(=O)(=O)N(c1cccc(C(=O)NCCc2ncccn2)c1)C1CN(C(c2ccc(Cl)cc2)c2ccc(Cl)cc2)C1 [Compound 16, 3-[{1-[bis(4-chlorophenyl)methyl]azetidin-3-yl}(methylsulphonyl)amino]-N-[2-(pyrimidin-2-yl)-ethyl]benzamide]	120 °C	–
Cc1cc(NC(=O)c2cc(F)cc(N(C3CN(C(c4ccc(Cl)cc4)c4ccc(Cl)cc4)C3)S(C)(=O)=O)c2)on1 [Compound 26, 3-[{1-[bis(4-chlorophenyl)methyl]azetidin-3-yl}(methylsulphonyl)amino]-5-fluoro-N-(3-methylisoxazol-5-yl)benzamide]	224 to 226 °C	–
N#Cc1ccnc(NC(=O)c2cc(F)cc(NS(=O)(=O)CC3CN(C(c4ccc(Cl)cc4)c4ccc(Cl)cc4)C3)c2)c1 [Compound 34, 3-({1-[bis(4-chlorophenyl)methyl]azetidin-3-yl}methylsulphonylamino)-N-(4-cyanopyridin-2-yl)-5-fluorobenzamide]	165 °C	–
CS(=O)(=O)N(c1cccc(C(=O)Nc2cc(O)ccn2)c1)C1CN(C(c2ccc(Cl)cc2)c2ccc(Cl)cc2)C1 [Compound 11, 3-[{1-[bis(4-chlorophenyl)methyl]azetidin-3-yl}(methylsulphonyl)amino]-N-(4-hydroxypyridin-2-yl)benzamide]	208 °C	IC50 (human CB1 receptor; [1]): 170 nM
CS(=O)(=O)N(c1cccc(C(=O)Nc2n[nH]cc2C(N)=O)c1)C1CN(C(c2ccc(Cl)cc2)c2ccc(Cl)cc2)C1 [Compound 12, 3-[({3-[{1-[bis(4-chlorophenyl)methyl]azetidin-3-yl}(methylsulphonyl)amino]phenyl}carbonyl)-amino]-1H-pyrazole-4-carboxamide]	174 °C	–
CS(=O)(=O)N(c1cc(F)cc(C(=O)Nc2ccon2)c1)C1CN(C(c2ccc(Cl)cc2)c2ccc(Cl)cc2)C1 [Compound 17, 3-[{1-[bis(4-chlorophenyl)methyl]azetidin-3-yl}(methylsulphonyl)amino]-5-fluoro-N-(isoxazol-3-yl)benzamide]	219 to 221 °C	–
CS(=O)(=O)N(c1cccc(C(=O)NCc2cc[nH]n2)c1)C1CN(C(c2ccc(Cl)cc2)c2ccc(Cl)cc2)C1 [Compound 14, 3-[{1-[Bis(4-chlorophenyl)methyl]azetidin-3-yl}(methylsulphonyl)amino]-N-(1H-pyrazol-3-ylmethyl)benzamide]	224 °C	–
CS(=O)(=O)N(c1cc(F)cc(C(=O)Nc2cnoc2)c1)C1CN(C(c2ccc(Cl)cc2)c2ccc(Cl)cc2)C1 [Compound 24, 3-[{1-[bis(4-chlorophenyl)methyl]azetidin-3-yl}(methylsulphonyl)amino]-5-fluoro-N-(isoxazol-4-yl)benzamide]	234 to 236 °C	–
Cc1ccnc(NC(=O)c2cc(F)cc(N(C3CN(C(c4ccc(Cl)cc4)c4ccc(Cl)cc4)C3)S(C)(=O)=O)c2)c1 [Compound 27, 3-[{1-[bis(4-chlorophenyl)methyl]azetidin-3-yl}(methylsulphonyl)amino]-5-fluoro-N-(4-methylpyridin-2-yl)benzamide]	184 to 186 °C	–
CS(=O)(=O)N(c1cc(F)cc(C(=O)Nc2ccccn2)c1)C1CN(C(c2ccc(Cl)cc2)c2ccc(Cl)cc2)C1 [Compound 18, 3-[{1-[bis(4-chlorophenyl)methyl]azetidin-3-yl}(methylsulphonyl)amino]-5-fluoro-N-(pyridin-2-yl)benzamide]	–	IC50 (human CB1 receptor; [1]): 6 nM
CS(=O)(=O)N(c1cccc(C(=O)Nc2nccs2)c1)C1CN(C(c2ccc(Cl)cc2)c2ccc(Cl)cc2)C1 [Compound 1, 3-[{1-[Bis(4-chlorophenyl)methyl]azetidin-3-yl}(methylsulphonyl)amino]-N-(1,3-thiazol-2-yl)benzamide]	244 °C	–
CS(=O)(=O)N(c1cccc(C(=O)Nc2ccc(N)nc2)c1)C1CN(C(c2ccc(Cl)cc2)c2ccc(Cl)cc2)C1 [Compound 30, N-(6-aminopyridin-3-yl)-3-[{1-[bis(4-chlorophenyl)methyl]azetidin-3-yl}(methylsulphonyl)amino]benzamide]	210 °C	–
CS(=O)(=O)N(c1cccc(C(=O)Nc2nonc2N)c1)C1CN(C(c2ccc(Cl)cc2)c2ccc(Cl)cc2)C1 [Compound 10, N-(4-amino-1,2,5-oxadiazol-3-yl)-3-[{1-[bis(4-chlorophenyl)methyl]azetidin-3-yl}(methylsulphonyl)amino]benzamide]	255 °C	IC50 (human CB1 receptor; [1]): 40 nM
Cn1cc(O)nc1NC(=O)c1cccc(N(C2CN(C(c3ccc(Cl)cc3)c3ccc(Cl)cc3)C2)S(C)(=O)=O)c1 [Compound 4, 3-[{1-[bis(4-chlorophenyl)methyl]azetidin-3-yl}(methylsulphonyl)amino]-N-(4-hydroxy-1-methyl-1H-imidazol-2-yl)benzamide]	134 °C	–
CS(=O)(=O)N(c1cc(F)cc(C(=O)NCc2ccc(=O)[nH]c2)c1)C1CN(C(c2ccc(Cl)cc2)c2ccc(Cl)cc2)C1 [Compound 47]	–	IC50 (human CB1 receptor): 9 nM; percentages of inhibition (cannabinoid CB1 receptor): 68%
CS(=O)(=O)N(c1cc(F)cc(C(=O)Nc2cc(C#N)ccn2)c1)C1CN(C(c2ccc(Cl)cc2)c2ccc(Cl)cc2)C1 [Compound 34]	–	IC50 (human CB1 receptor): 20 nM; percentages of inhibition (cannabinoid CB1 receptor): 46%
CS(=O)(=O)N(c1cccc(C(=O)NCCn2cccn2)c1)C1CN(C(c2ccc(Cl)cc2)c2ccc(Cl)cc2)C1 [Compound 15, 3-[{1-[bis(4-chlorophenyl)methyl]azetidin-3-yl}(methylsulphonyl)amino]-N[2-(1H-pyrazol-1-yl)ethyl]benzamide]	264 °C	IC50 (human CB1 receptor; [1]): 134 nM
CS(=O)(=O)N(c1cccc(C(=O)NCc2cc(O)no2)c1)C1CN(C(c2ccc(Cl)cc2)c2ccc(Cl)cc2)C1	209 °C	–
Cc1cc(NC(=O)c2cc(F)cc(N(C3CN(C(c4ccc(Cl)cc4)c4ccc(Cl)cc4)C3)S(C)(=O)=O)c2)no1 [Compound 21, 3-[{1-[Bis(4-chlorophenyl)methyl]azetidin-3-yl)(methylsulphonyl)amino]-5-fluoro-N-(5-methylisoxazol-3-yl)benzamide]	222 to 224 °C	–
